According to ChEMBL document CHEMBL5030541, “Non-alkylator anti-glioblastoma agents induced cell cycle G2/M arrest and apoptosis: Design, in silico physicochemical and SAR studies of 2-aminoquinoline-3-carboxamides” (Bioorg Med Chem Lett, 2021):
Activity calls are given as the source filed them. The rule behind the calls is not given here.

How the values were obtained:
[1] = system: U-87 MG; assay: Cytotoxicity against human U-87 MG cells assessed as inhibition of cell growth measured after 48 hrs by MTT assay; type: functional, cell-based, U-87MG ATCC
[2] = system: MKN-45; assay: Cytotoxicity against human MKN-45 cells assessed as inhibition of cell growth measured after 48 hrs by MTT assay; type: functional, cell-based; conditions: MKN-45, 48 h
[3] = system: HCT-116; assay: Cytotoxicity against human HCT-116 cells assessed as inhibition of cell growth measured after 48 hrs by MTT assay; type: functional, cell-based; conditions: HCT-116, 48 h
[4] = system: A549; assay: Cytotoxicity against human A549 cells assessed as inhibition of cell growth measured after 48 hrs by MTT assay; type: functional, cell-based; conditions: A549, 48 h
[5] = system: U-87 MG; assay: Induction of cell cycle arrest in human U-87 MG cells assessed as accumulation of cells at G2/M phase at 0.5 times IC50 measured after 48 hrs by PI staining based flow cytometry analysis (Rvb= 5.39%); type: functional, U-87MG ATCC
[6] = system: U-87 MG; assay: Effect on cell morphology in human U-87 MG cells assessed as lose of adherence; type: functional, cell-based; conditions: U-87MG ATCC
[7] = system: L02; assay: Cytotoxicity against human L02 cells assessed as inhibition of cell growth measured after 48 hrs by MTT assay; type: cell-based; conditions: L02, 48 h
[8] = system: U-87 MG; assay: Cytotoxicity against human U-87 MG cells assessed as inhibition of cell growth at 100 uM measured after 48 hrs by MTT assay; type: functional, cell-based; conditions: U-87MG ATCC
[9] = system: U-118-MG; assay: Effect on cell morphology in human U-118-MG cells assessed as lose of adherence; type: functional, cell-based
[10] = system: NCM460; assay: Cytotoxicity against human NCM460 cells assessed as inhibition of cell growth measured after 48 hrs by MTT assay; type: cell-based; conditions: NCM460, 48 h
[11] = system: U-87 MG; assay: Effect on cell morphology in human U-87 MG cells assessed as appearance of round cells; type: functional, cell-based; conditions: U-87MG ATCC
[12] = system: CCD-841CoN; assay: Cytotoxicity against human CCD-841CoN cells assessed as inhibition of cell growth measured after 48 hrs by MTT assay; type: cell-based
[13] = system: U-87 MG; assay: Induction of apoptosis in human U-87 MG cells assessed as early apoptotic cells at 44 uM measured after 48 hrs by annexin V-FITC/PI staining based flow cytometry analysis (Rvb= 6.21%); type: functional, U-87MG ATCC
[14] = system: U-118-MG; assay: Effect on cell morphology in human U-118-MG cells assessed as appearance of round cells; type: functional, cell-based
[15] = system: U-251; assay: Cytotoxicity against human U-251 cells assessed as inhibition of cell growth measured after 48 hrs by MTT assay; type: functional, cell-based; conditions: U-251, 48 h
[16] = system: U-118-MG; assay: Cytotoxicity against human U-118-MG cells assessed as inhibition of cell growth measured after 48 hrs by MTT assay; type: functional, cell-based
[17] = system: U-87 MG; assay: Induction of apoptosis in human U-87 MG cells assessed as dead cells at 44 uM measured after 48 hrs by Annexin V-FITC/PI staining based flow cytometry analysis (Rvb= 0.098%); type: functional, U-87MG ATCC
[18] = system: U-87 MG; assay: Induction of apoptosis in human U-87 MG cells assessed as late apoptotic cells at 44 uM measured after 48 hrs by annexin V-FITC/PI staining based flow cytometry analysis (Rvb= 2.11%); type: functional, U-87MG ATCC
[19] = system: A 172; assay: Cytotoxicity against human A 172 cells assessed as inhibition of cell growth measured after 48 hrs by MTT assay; type: functional, cell-based; conditions: A 172, 48 h
[20] = system: U-87 MG; assay: Induction of apoptosis in human U-87 MG cells assessed as live cells at 44 uM measured after 48 hrs by annexin V-FITC/PI staining based flow cytometry analysis (Rvb= 91.6%); type: functional, U-87MG ATCC
[21] = system: HCT-116; assay: Cytotoxicity against human HCT-116 cells assessed as inhibition of cell growth at 200 uM measured after 48 hrs by MTT assay; type: functional, cell-based
[22] = system: MKN-45; assay: Cytotoxicity against human MKN-45 cells assessed as inhibition of cell growth at 200 uM measured after 48 hrs by MTT assay; type: functional, cell-based
[23] = system: A549; assay: Cytotoxicity against human A549 cells assessed as inhibition of cell growth at 200 uM measured after 48 hrs by MTT assay; type: functional, cell-based
[24] = system: U-87 MG; assay: Cytotoxicity against human U-87 MG cells assessed as inhibition of cell growth at 200 uM measured after 48 hrs by MTT assay; type: functional, cell-based; conditions: U-87MG ATCC

With Nc1nc2ncccc2cc1C(=O)NCc1cccnc1 the IC50 [1] was 303 µM, the IC50 [2] was > 200 µM and the IC50 [3] was > 200 µM. For the same compound, the IC50 [4] was > 200 µM.

In the case of Cn1nnc2c(C(N)=O)ncn2c1=O [TEMOZOLOMIDE], the IC50 [1] is reported as > 200 µM.

COc1cc2cc(C(=O)NCCc3c[nH]c4ccccc34)c(N)nc2cc1OC was tested, and the IC50 [1] was 43.6 µM, the Activity [5] was 23.14% and the Activity [6] was “Active”. The IC50 [2] was 72.3 µM, the IC50 [7] was 118 µM and the Activity [8] was “Active”. The Activity [9] was “Active”, the IC50 [10] was 222 µM and the Activity [11] was “Active”. For the same compound, the IC50 [12] was 135 µM, the Activity [13] was 50.9% and the Activity [14] was “Active”. It also gave an IC50 [15] of 121 µM, an IC50 [16] of 29.2 µM and an Activity [17] of 0.45%. For the same compound, the Activity [18] was 43%, the IC50 [19] was 23.7 µM and the Activity [20] was 5.65%.

For COc1cc2nc(N)c(C(=O)NCCc3c[nH]c4ccccc34)cc2c(Cl)c1OC, the IC50 [1] was 60.8 µM and the IC50 [2] was 75.1 µM.

With C#CCNC(=O)c1cc2cc3c(cc2nc1N)OCO3 the IC50 [1] was > 200 µM, the IC50 [2] was > 200 µM and the IC50 [3] was > 200 µM. It also gave an IC50 [4] of 92 µM.

With Nc1nc2cc3c(cc2cc1C(=O)NCc1ccccc1)OCO3 the IC50 [1] was 75.6 µM, the IC50 [2] was > 200 µM and the IC50 [3] was > 200 µM. For the same compound, the IC50 [4] was > 200 µM.

With Nc1nc2cc(Cl)ccc2cc1C(=O)NCc1cccnc1 the IC50 [1] was 125 µM, the IC50 [2] was > 200 µM and the IC50 [3] was > 200 µM. For the same compound, the IC50 [4] was > 200 µM.

Nc1nc2cc3c(cc2cc1C(=O)NCC1CC1)OCO3 was tested, and the IC50 [1] was 77.2 µM, the IC50 [2] was > 200 µM and the IC50 [3] was > 200 µM. The IC50 [4] was > 200 µM.

In the case of Nc1nc2cc3c(cc2cc1C(=O)NCCc1c[nH]c2ccccc12)OCO3, the IC50 [1] is reported as 45.5 µM, the IC50 [2] is reported as 76.9 µM and the IC50 [3] is reported as > 200 µM. The IC50 [4] was > 200 µM.

With Nc1nc2cc3c(cc2cc1C(=O)NCCN1C(=O)c2cccc4cccc(c24)C1=O)OCO3 the IC50 [1] was > 200 µM and the IC50 [4] was 73.4 µM.

In the case of c1cc2cc3c(cc2nc1C1CC1)OCO3, the IC50 [1] is reported as > 200 µM and the Activity [8] is reported as “inactive”.

Nc1nc2cc3c(cc2cc1C(=O)NCCc1c[nH]c2ccccc12)OCCO3 was tested, and the IC50 [1] was 44.4 µM.

Nc1nc2cc3c(cc2cc1C(=O)NCc1cccnc1)OCO3 was tested, and the IC50 [1] was 109 µM, the Activity [21] was “inactive” and the IC50 [2] was > 200 µM. The IC50 [3] was 163 µM, the IC50 [4] was > 200 µM and the Activity [22] was “inactive”. For the same compound, the Activity [23] was “inactive” and the Activity [24] was “inactive”.
